# Experimental data reported in patent publication US20260026506A1, “COMPOSITION FOR DISSOLVING AN OILY COMPOUND IN WATER” (AFFIX LABS OY, priority 2022, published 2026).
# Legend:
# [1] = Dissolving DEET with the composition of the invention (Example 3, general procedure); assay type: physicochemical; conditions: composition of Table 3
# Experimental: A general procedure to prepare the solution of an active compound in the composition of the invention is applied: • Deionized water was brought in a beaker equipped with a stirring bar and placed on a stirring plate. The cosolvent was added to the solution whilst stirring. Subsequently, the surfactant was added, and before the surfactant was dissolved also icaridin was added. Stirring is stopped when all components of the composition are dissolved.
# The same test was applied to determine if the composition of the invention is also able to dissolve alternative water-insoluble compounds. In this experiment icaridin was switched for DEET and the general procedure was applied.
# [2] = Dissolving icaridin in water with individual components only (Example 2, visual result); assay type: physicochemical; conditions: icaridin 5.0 wt.%
# Experimental: In this experiment, it is tested if the combination of the cosolvent and the surfactant is required to dissolve icaridin or if individual components can also dissolve icaridin in water.
# Deionized water was brought in a beaker equipped with a stirring bar and placed on a stirring plate. The (when applicable) cosolvent was added to the solution whilst stirring. Subsequently (when applicable) the surfactant was added, before this dissolved also (when applicable) icaridin was added. Stirring is stopped when everything is dissolved.
SMILES,Amount dissolved in water by the composition of the invention [1],Solubility of icaridin in water (conclusion from Table 2) [2]
"CCN(CC)C(=O)c1cccc(C)c1 [DEET, N,N-diethyl-m-toluamide]",5 wt. %,–
CCC(C)OC(=O)N1CCCCC1CCO (centres unmarked) [icaridin],–,only soluble in water using the combination cosolvent and surfactants
